Consider 15 compounds from patent US20030083315A1, “Human chymase inhibitors” (priority 2000, published 2003).

Data set [1] deals with T1, recombinant human mast cell chymase (Homo sapiens, UniProt P23946).
T1 construct: made in house; host or cells: insect cell (Tn 5) infected with recombinant baculovirus
T1 sequence (P23946 22-247): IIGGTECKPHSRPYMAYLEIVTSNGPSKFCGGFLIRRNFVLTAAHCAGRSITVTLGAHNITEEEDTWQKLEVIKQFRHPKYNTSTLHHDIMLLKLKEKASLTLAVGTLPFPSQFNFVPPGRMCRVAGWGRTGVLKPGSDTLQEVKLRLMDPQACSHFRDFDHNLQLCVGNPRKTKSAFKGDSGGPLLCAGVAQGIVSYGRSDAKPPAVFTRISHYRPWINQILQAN
The data set is described as follows: Inhibition of enzyme activity of recombinant human mast cell chymase. The following applies: active-type human mast cell chymase, substrate succinyl-alanyl-histidyl-prolyl-phenylalanylparanitroanilide 0.5 mM, room temperature 5 min, absorption at 405. In kind it is biochemical. As to the method:
A recombinant pro-type human mast cell chymase was prepared according to the report by Urata et al., Journal of Biological Chemistry 17173, Vol. 266 (1991). That is, the product was purified from the supernatant of the culture broth of insect cell (Tn 5) infected with a recombinant baculovirus containing a cDNA encoding a human mast cell chymase by heparin sepharose (manufactured by Pharmacia Co.). The obtained chymase was further activated according to the report of Murakami et al., Journal of Biological Chemistry, 2218, Vol. 270 (1995), and then it was purified by heparin sepharose to yield an active-type human mast cell chymase.
To 50 μl of buffer A (0.5 to 3.0 M NaCl, 50 mM tris-HCl, pH 8.0) containing 1 to 5 ng of the active-type human mast cell chymase obtained by Example 19 was added 2 μl of a DMSO solution containing a compound of the present invention, and the mixture was made to react at room temperature for 5 min after the addition of 50 μl of the buffer A containing 0.5 mM of succinyl-alanyl-histidyl-prolyl-phenylalanylparanitroanilide (Bacchem Co.) as a substrate. The inhibition activity was determined by measuring the variation of the absorption at 405 nm with the passage of time.

A short description of data set [2]: Blood concentration after forced oral administration into rat stomach. In kind it is in vivo. The following applies: SD male rat, 30 mg/kg forced into the stomach under starvation, serum, unchanged compound by HPLC; for AUC: read-out: AUC (extrapolation). As to the method: By using a SD male rat, a compound having the compound number of 121, 127 or 363 was forcedly administered at a dose of 30 mg/kg into the stomach under starvation, and blood samples were taken out at 30 min, 1 hr, 2 hr, 4 hr and 8 hr after the administration. Directly after the collection of the blood samples, the serum component was separated, the compound of the present invention was extracted by a general method of solid extraction, and the obtained sample was subjected to HPLC analysis by using an ODS column to measured the amount of the unchanged compound.

Data set [3] can be described thus: In vitro metabolic test using hepatic microsome (Ms). In kind it is in vitro ADME. To be noted: hepatic microsome 1.0 mg/mL, substrate 5.0 μM, 37° C.; for MR (maximum speed of metabolism): NADPH 1.0 mM. As to the method:
Letting the amount of the unchanged body at the initial concentration (reaction time 0 min) 100%, the speed of metabolism is determined from the amount of the decrease of the unchanged body at each reaction time, and the maximum speed of metabolism (MR) is evaluated.
MR=(the substrate concentration at reaction time 0 min−the substance concentration after the reaction)÷reaction time÷protein concentration (nmol/min/mg-protein)

As to `CC(C)(CC(=O)O)C(=O)CSc1nc2ccccc2n1Cc1cccc2ccccc12` [Compound No. 494, 5-(1-((1-nanhthyl)methyl)benzimidazole-2-ylthio)-4-oxo-3,3-dimethylvaleric Acid], the IC50 in data set [1] lay within 0.01 to 0.1 µM.

Take `O=C(O)CCCSc1nc2ccccc2n1Cc1cccc2ccccc12` [Compound No. 121, 4-(1-((1-naphthyl)methyl)benzimidazole-2-ylthio)butyric acid]: in data set [2], the Cmax is 122 µg/mL and the AUC was 226 µg·h/mL. Further, in data set [3], the “Remaining Rate (%) of Substrate at 30 min” value (“Remaining Rate (%)” below) is recorded as 56.6% and the “MR (maximum speed of metabolism)” value was found to be 0.235 nmol/min/mg-protein. Besides, the concentration for half-maximal inhibition (IC50) in data set [1] lay within 0.001 to 0.01 µM.

In the case of `Cc1cccc2cccc(Cn3c(SCCCC(=O)O)nc4ccccc43)c12` [Compound No. 492, 4-(1-((8-methyl-1-naphthyl)methyl)benzimidazole-2-ylthio)butyric Acid], the half-inhibitory concentration (IC50) in data set [1] lay within 0.001 to 0.01 µM.

`COc1ccc2c(c1)nc(SCCCC(=O)O)n2Cc1cccc2ccccc12` [Compound No. 127, 4-((1-((1-naphthyl)methyl)-5-methoxybenzimidazole)-2-ylthio)butyric acid]: in data set [2], the Cmax stood at 76 µg/mL and the AUC was 181 µg·h/mL. Besides, in data set [3], the “Remaining Rate (%)” value is recorded as 21.6% and the “MR (maximum speed of metabolism)” value was found to be 0.190 nmol/min/mg-protein. Moreover, the half-inhibitory concentration (IC50) in data set [1] was in the range of 0.001 to 0.01 µM.

In the case of `O=C(O)CCSc1nc2ccccc2n1Cc1cccc2ccccc12` [Compound No. 496, 3-(1-((1-naphthyl)methyl)-benzimidazole-2-ylthio)propanoic acid], in data set [1], the IC50 was in the range of 0.01 to 0.1 µM.

`Cc1cc2nc(S(=O)(=O)CCCC(=O)O)n(Cc3cccc4ccccc34)c2cc1C` [Compound No. 498, 4-(1-((1-naphthyl)methyl)-5,6-dimethylbenzimidazole-2-ylsulfonyl)butyric acid]: the half-inhibitory concentration (IC50) in data set [1] is 0.01 to 0.1 µM.

For the compound `O=C(O)CCCSc1nc2cc(F)c(F)cc2n1Cc1cccc2ccccc12` [Compound No. 131, 4-(1-((1-naphthyl)methyl)-5,6-difluorobenzimidazole-2-ylthio)butyric acid], in data set [1], the 50% inhibitory concentration (IC50) is 0.01 to 0.1 µM.

As for `Cc1cc2nc(SCCCC(=O)O)n(Cc3cccc4cccc(C)c34)c2cc1C` [Compound No. 493, 4-(1-((8-methyl-1-naphthyl)methyl)-5,6-dimethylbenzimidazole-2-ylthio)-butyric Acid], the IC50 in data set [1] is 0.001 to 0.01 µM.

Consider `COc1ccc2c(c1)nc(SCCCC(=O)O)n2Cc1cc(C)ccc1C` [Compound No. 495, 4-(1-((2,5-dimethylphenil)methyl)-5-methoxybenzimidazole-2-ylthio)butyric Acid], for which, in data set [1], the IC50 fell in the range of 0.01 to 0.1 µM.

On to `Cc1cc2nc(SCCCC(=O)O)n(Cc3cccc4ccccc34)c2cc1C` [Compound No. 129, 4-(1-((1-naphthyl)methyl)-5,6-dimethylbenzimidazole-2-ylthio)butyric acid], for which the IC50 in data set [1] lay in the range of 0.001 to 0.01 µM.

For the compound `O=C(O)CCCCSc1nc2ccccc2n1Cc1cccc2ccccc12` [compound 497, 5-(1-((1-naphthyl)methyl)-benzimidazole-2-ylthio)valeric acid], the IC50 in data set [1] was in the range of 0.01 to 0.1 µM.

`O=C(O)CCCSc1nc2cc(C(F)(F)F)ccc2n1Cc1cccc2ccccc12` [Compound No. 126, 4-(1-((1-naphthyl)methyl)-5-trifluoromethylbenzimidazole-2-ylthio)butyric Acid]: in data set [1], the IC50 was 0.01 to 0.1 µM.

Consider `Cc1ccc(C)c(Cn2c(SCCCC(=O)O)nc3cc(C#N)ccc32)c1` [Compound No. 337, 4-(1-((2,5-dimethylphenyl)methyl)-5-cyanobenzimidazole-2-ylthio)butyric Acid], for which the IC50 in data set [1] is 0.01 to 0.1 µM.

As for `N#Cc1ccc2c(c1)nc(SCCCC(=O)O)n2Cc1cccc2ccccc12` [Compound No. 363, 4-(1-((1-naphthyl)methyl)-5-cyanobenzimidazole-2-ylthio)butyric acid], in data set [2], the peak concentration (Cmax) is 77 µg/mL and the AUC was 182 µg·h/mL. Moreover, in data set [3], the “Remaining Rate (%)” value was determined as 57.6% and the “MR (maximum speed of metabolism)” value is 0.147 nmol/min/mg-protein. Moreover, the IC50 in data set [1] was in the range of 0.01 to 0.1 µM.

On to `CCOc1ccc2c(c1)nc(SCCCC(=O)O)n2Cc1cccc2ccccc12` [Compound No. 128, 4-(1-((1-naphthyl)methyl)-5-ethoxybenzimidazole-2-ylthio)butyric acid], for which, in data set [1], the half-inhibitory concentration (IC50) was 0.01 to 0.1 µM.

Broadly, the IC50 is the midpoint of a concentration-inhibition curve. For orientation: Cmax means the highest concentration seen after dosing. Usually AUC stands for the area under the concentration-time curve, a measure of exposure.
